Data from paper PMC11211886 (Frontiers in Pharmacology, 2024).

Tests used:
[1] = Whole blood-to-plasma partition, rat blood; format: in vitro ADME
Description: (§1) The whole blood and plasma samples were incubated at 37°C for up to 1 h. Serial samples (150 µL) were collected at different time points (0, 10, and 60 min) and transferred into new tubes. The whole blood samples were then centrifuged at 1700 g for 15 min to harvest plasma.

CYP2C9 mRNA = experiment: CYP induction in human hepatocytes, CYP2C9 mRNA (RT-PCR)
Description: (§2) […] […] […] Enzyme activity for each CYP isoform was reported as a fold change over vehicle control and the percent of positive control (detailed calculation in Supplementary 1.1). Hepatocytes were harvested with a lysis buffer from RNeasy 96 Kit (Qiagen Inc., Germantown, MD, USA) to isolate RNA, which was analyzed by real-time quantitative polymerase chain reaction (RT-PCR). […] Emax (the maximal observed induction) and EC50 (the concentration that supports half-maximal induction) were estimated by non-linear regression of fold increase in CYP mRNA expression versus concentration plots.
(§3) % of positive control = [(fold change in treated sample)-1] / [(fold change in positive control)-1] × 100
Based on the gene expression, a minimum of 4-fold increase of positive control compared to vehicle control, a minimum of 2-fold increase of the test article compared vehicle control and increased in a concentration-dependent manner was considered as the cutoff for a positive signal in in vitro induction assay.

CYP2B6 = target: T1, CYP2B6 (Homo sapiens, UniProt P20813); experiment: Time-dependent CYP inhibition in HLM, CYP2B6; format: in vitro ADME; details: 10 μM, 30 min pre-incubation with NADPH
T1 construct: tissue Life Technologies (Durham, NC, USA); host or cells: human liver microsomes
T1 sequence (P20813 1-491): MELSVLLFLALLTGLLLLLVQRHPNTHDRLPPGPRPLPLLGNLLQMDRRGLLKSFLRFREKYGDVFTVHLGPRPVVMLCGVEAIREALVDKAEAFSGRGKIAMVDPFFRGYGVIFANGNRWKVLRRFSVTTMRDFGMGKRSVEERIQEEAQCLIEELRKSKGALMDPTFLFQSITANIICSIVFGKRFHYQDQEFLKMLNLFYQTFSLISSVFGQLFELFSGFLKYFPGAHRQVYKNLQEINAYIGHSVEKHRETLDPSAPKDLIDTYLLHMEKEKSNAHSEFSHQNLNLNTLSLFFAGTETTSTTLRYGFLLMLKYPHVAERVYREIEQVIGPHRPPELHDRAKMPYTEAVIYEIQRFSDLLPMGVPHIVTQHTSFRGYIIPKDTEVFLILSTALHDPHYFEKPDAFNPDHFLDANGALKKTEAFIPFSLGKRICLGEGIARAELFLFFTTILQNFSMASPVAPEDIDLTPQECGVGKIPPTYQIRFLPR
Description: The procedure of time-dependent CYP inhibition was similar to that used for CYP reversible inhibition, as mentioned above, except that a pre-incubation step was added. […] Another appropriate volume of the NADPH-regenerating system and probe substrate were added to initiate the CYP isoform enzyme activity test step. For this step, the incubation period was 10 min, except for CYP2B6, CYP2C8, and CYP3A4/5 (probe substrate: midazolam), which was 3 min to make sure the reaction was under initial linear rates. After incubation for the designated time periods at 37°C, the ice-cold acetonitrile containing IS was added to quench the reaction. […] (Ainactivator/[…] represents the enzyme activity remaining due to the inhibition by the diluted inactivator in the enzyme activity test step, and (Ainactivator/[…] represents the remaining enzyme activity due to pre-incubation loss plus inhibition by the diluted inactivator in the enzyme activity test step.

[2] = humans, RP2D 30 mg, phase Ib (n = 90); ref European Society for Medical Oncology, 2021; cited from earlier work
[3] = Whole blood-to-plasma partition, human blood; format: in vitro ADME
Description: as §1

CYP2C9 = experiment: CYP induction in human hepatocytes, CYP2C9 enzyme activity
Description: as §2
(§4) The fold of vehicle control and the percent of positive control were calculated with the formulas below:
(§5) Fold of vehicle control = CYPs activity of test compound (or positive control) treated sample / CYPs activity of vehicle control treated sample
as §3
(§6) Based on the enzyme activity, a minimum of 2-fold increase compared to vehicle control for the positive control and ≥40% of the positive control for the test article was considered as the cutoff for a positive signal in in vitro induction assay.

CYP2C8 = experiment: CYP induction in human hepatocytes, CYP2C8 enzyme activity
Description: as §2, §4, §5, §3, §6

Structure (SMILES): C[C@H](Nc1ncnc(N)c1C#N)c1cc2ncc(Cl)n2nc1-c1ccccc1 [Amdizalisib]
- RB ([1]; rat blood, 1 μM, 0 min): 1.08
- RB ([1]; rat blood, 1 μM, 60 min): 1.03
- fuB ([1]; rat blood, 10 min): 8.41%
- fuB ([1]; rat, 0 min, 1 µM): 9.11%
- fup ([1]; rat, 1 µM): 0.0980
- RB ([1]; rat, 10 min, 1 µM): 1.16
- fuB ([1]; rat, 60 min, 1 µM): 9.49%
- induction on CYP2C9 mRNA expression (CYP2C9 mRNA; 20 uM): >2-fold induction on CYP1A2, 2B6, 3A4, 2C9 mRNA expression at 20 uM
- Gene expression Percent of PC (%) (CYP2C9 mRNA; CYP2C9, donor eight, 0.3 µM): 5.23%
- Gene expression Percent of PC (%) (CYP2C9 mRNA; CYP2C9, donor eight, 3 µM): 20.0%
- Gene expression Percent of PC (%) (CYP2C9 mRNA; CYP2C9, donor eight, 20 µM): 54.5%
- Gene expression Percent of PC (%) (CYP2C9 mRNA; CYP2C9, donor four, 0.3 µM): 16.1%
- Gene expression Percent of PC (%) (CYP2C9 mRNA; CYP2C9, donor four, 3 µM): 28.8%
- Gene expression Percent of PC (%) (CYP2C9 mRNA; CYP2C9, donor four, 20 µM): 81.6%
- Gene expression Percent of PC (%) (CYP2C9 mRNA; CYP2C9, donor one, 0.3 µM): 12.7%
- Gene expression Percent of PC (%) (CYP2C9 mRNA; CYP2C9, donor one, 3 µM): 18.0%
- Gene expression Percent of PC (%) (CYP2C9 mRNA; CYP2C9, donor one, 20 µM): 59.0%
- activity loss of CYP2B6 (CYP2B6): less than 10%
- Grade 3 diarrhea [2]: 2.2%
- colitis [2]: no colitis cases were reported
- serious GI toxicity [2]: less than 5%
- fuB ([3]; human blood, 0 min): 11.7%
- RB ([3]; human, 0 min, 1 µM): 0.615
- fup ([3]; human, 1 µM): 0.0720
- RB ([3]; human, 10 min, 1 μM): 0.680
- fuB ([3]; human, 10 min, 1 μM): 10.6%
- RB ([3]; human, 60 min, 1 μM): 0.797
- fuB ([3]; human, 60 min, 1 μM): 9.02%
- Enzyme activity Percent of PC (%) (CYP2C9; CYP2C9, donor eight, 20 µM): 14.5%
- Enzyme activity Percent of PC (%) (CYP2C9; female, human, 48 h, 0.3 µM): 5.63%
- Enzyme activity Percent of PC (%) (CYP2C9; female, human, 48 h, 3 µM): 30.0%
- Enzyme activity Percent of PC (%) (CYP2C9; female, human, 48 h, 20 µM): 38.1%
- Enzyme activity Percent of PC (%) (CYP2C9; male, human, 48 h, 20 µM): 36.5%
- Enzyme activity Percent of PC (%) (CYP2C8; CYP 2C8, donor one, 3 µM): 10.8%
- Enzyme activity Percent of PC (%) (CYP2C8; female, human, 48 h, 0.3 µM): 5.21%
- Enzyme activity Percent of PC (%) (CYP2C8; female, human, 48 h, 20 µM): -19.4%
